Values quoted from earlier work as cited in patent US4032635A, “Pharmaceutical method for the therapy of immune diseases” (Zaidan Hojin Biseibutsu Kagaku Kenkyu Kai, priority 1975, dated 1977).

Key:
[1] = system: histidine decarboxylase; conditions: cited from earlier work
[2] = system: antibody formation, anaphylaxis or contact dermatitis; conditions: in vivo; cited from earlier work
[3] = system: experimental allergic encephalomyelitis (EAE); conditions: cited from earlier work
[4] = system: nucleic acid and/or protein synthesis; conditions: cited from earlier work
[5] = system: autoimmune diseases, some infection allergies and dermatological contact allergies, transplantation immunological responses; conditions: in vivo; cited from earlier work
[6] = system: humoral and cell-mediated immunities; conditions: cited from earlier work
[7] = system: MS and related autoimmune diseases; conditions: long-term administration; cited from earlier work

NNC(Cc1c[nH]cn1)C(=O)O (centres unmarked) [2-hydrazino-3-(4-imidazolyl)-propionic acid]
inhibition of histidine decarboxylase [1]: inhibitor of histidine decarboxylase
inhibition of antibody formation, anaphylaxis or contact dermatitis [2]: inhibits antibody formation, anaphylaxis or contact dermatitis

O=P1(N(CCCl)CCCl)NCCCO1 (centres unmarked) [cyclophosphamide]
EAE after discontinuation of the drug (known agents) ([3]; after discontinuation and following a latent period): the animals often develop paralytic EAE
suppression of development of EAE (known agents) ([3]; at such high doses as would cause toxicity): can suppress the development of EAE
effect on nucleic acid and/or protein synthesis [4]: disrupt nucleic acid and/or protein synthesis
effectiveness in therapy of autoimmune diseases, allergies, transplantation responses [5]: effective in the therapy of autoimmune diseases, some infection allergies and dermatological contact allergies
dose at which effective / cytotoxicity [6]: effective in general only at near-lethal doses owing to their cytotoxicity
inhibition of humoral and cell-mediated immunities [6]: inhibit both humoral and cell-mediated immunities

CCOc1c(N)c2c(c(OCC)c1OCC)C(C1c3c(cc4c(c3OC)OCO4)CCN1C)OC2=O (centres unmarked) [tritoqualine]
inhibition of histidine decarboxylase [1]: inhibitor of histidine decarboxylase
inhibition of antibody formation, anaphylaxis or contact dermatitis [2]: inhibits antibody formation, anaphylaxis or contact dermatitis

ACTH: presently applied to patients with MS and related autoimmune diseases (SYSMEHFRWGKPVGKKRRPVKVYPNGAEDESAEAFPLEF; Corticotropin; UniProt P01189 138-176, looked up)
effects in patients with MS [7]: effects are limited due to serious side-effects caused by long-term administration of the drug
